Test results: the NIST ThermoML archive (doi:10.1021/je100507n)

Assays:
[1] = Molar enthalpy of transition or fusion
[2] = for mass density: 101.33 kPa, Buoyancy - hydrostatic balance with magnetic suspension - one sinker; for mass density / surface tension liquid-gas: Liquid; for surface tension liquid-gas: Ring tensiometer

CC[n+]1ccccc1.O=S(=O)([N-]S(=O)(=O)C(F)(F)F)C(F)(F)F [1-ethylpyridinium bis[(trifluoromethyl)sulfonyl]imide]
Conditions | Glass transition temperature [°C] | Molar enthalpy of transition or fusion [kcal/mol] | Normal melting temperature [°C] | Triple point temperature [K] | mass density [kg/m3] | surface tension liquid-gas [mN/m]
[1], Crystal 1 | – | 4.52 | – | – | – | –
[2], 288.15 K | – | – | – | – | 1545.7 | 37.7
[2], 293.15 K | – | – | – | – | 1541.4 | 37.6
[2], 298.15 K | – | – | – | – | 1537.5 | 37.4
[2], 303.15 K | – | – | – | – | 1533.2 | 37.1
[2], 308.15 K | – | – | – | – | 1529.1 | 36.9
[2], 313.15 K | – | – | – | – | 1524.9 | 36.7
[2], 318.15 K | – | – | – | – | 1520.5 | 36.6
[2], 323.15 K | – | – | – | – | 1516.4 | 36.4
[2], 328.15 K | – | – | – | – | 1512.2 | 36.1
[2], 333.15 K | – | – | – | – | 1507.8 | 35.9
[2], 338.15 K | – | – | – | – | 1503.7 | 35.6
[2], Crystal 1, DTA | – | – | 30.50 | – | – | –
[2], Crystal 2, DTA | – | – | – | 292.8 | – | –
[2], DTA | -37.91 | – | – | – | – | –

CCCCC[n+]1ccccc1.O=S(=O)([N-]S(=O)(=O)C(F)(F)F)C(F)(F)F [1-pentylpyridinium bis(trifluoromethylsulfonyl)amide]
Conditions | Glass transition temperature [°C] | Molar enthalpy of transition or fusion [kcal/mol] | mass density [kg/m3] | surface tension liquid-gas [mN/m]
[1], Crystal | – | 5.45 | – | –
[2], 283.15 K | – | – | 1433.1 | 33.1
[2], 288.15 K | – | – | 1429.6 | 32.8
[2], 293.15 K | – | – | 1425.9 | 32.7
[2], 298.15 K | – | – | 1421.4 | 32.5
[2], 303.15 K | – | – | 1416.9 | 32.2
[2], 308.15 K | – | – | 1412.8 | 32
[2], 313.15 K | – | – | 1408.3 | 31.8
[2], 318.15 K | – | – | 1403.8 | 31.5
[2], 323.15 K | – | – | 1398.9 | 31.3
[2], 328.15 K | – | – | 1394.2 | 31.1
[2], 333.15 K | – | – | 1389.3 | 30.8
[2], 338.15 K | – | – | 1385.1 | 30.5
[2], DTA | -76.93 | – | – | –

Conditions | Normal melting temperature [°C]
[2], Crystal, DTA | -0.31

CCCC[n+]1ccccc1.O=S(=O)([N-]S(=O)(=O)C(F)(F)F)C(F)(F)F [1-butylpyridinium bis[(trifluoromethyl)sulfonyl]imide]
Conditions | Molar enthalpy of transition or fusion, [1] [kcal/mol] | mass density, [2] [kg/m3] | surface tension liquid-gas, [2] [mN/m]
298.15 K | – | 1454.7 | 33.4
303.15 K | – | 1450.6 | 33.2
308.15 K | – | 1446.2 | 32.9
313.15 K | – | 1441.7 | 32.8
318.15 K | – | 1437.2 | 32.4
323.15 K | – | 1433.2 | 32.1
328.15 K | – | 1429.1 | 32
333.15 K | – | 1424.5 | 31.8
338.15 K | – | 1420.5 | –
Crystal | 6.67 | – | –

Conditions | Normal melting temperature [°C]
[2], Crystal, DTA | 25.90
